Results taken from ChEMBL document CHEMBL4706554 (Eur J Med Chem, 2020).
The source made the active and inactive calls.

Legend:
[1] = system: DU-145; assay: Cytotoxicity against human DU-145 cells assessed as cell growth inhibition at 10 uM incubated for 48 hrs by SRB assay; assay type: functional, cell-based
[2] = system: RXF 393; assay: Cytotoxicity against human RXF 393 cells assessed as cell growth inhibition at 10 uM incubated for 48 hrs by SRB assay; assay type: functional, cell-based
[3] = system: SW-620; assay: Cytotoxicity against human SW-620 cells assessed as cell growth inhibition at 10 uM incubated for 48 hrs by SRB assay; assay type: functional, cell-based
[4] = system: 786-0; assay: Cytotoxicity against human 786-0 cells assessed as cell growth inhibition at 10 uM incubated for 48 hrs by SRB assay; assay type: functional, cell-based
[5] = biological target: Dual specificity tyrosine-phosphorylation-regulated kinase 1A (Homo sapiens) (UniProt Q13627); assay: Inhibition of wild-type human partial length DYRK1A (H129 to S509 residues) expressed in mammalian expression system at 1 uM by Kinomescan method
[6] = system: TK-10; assay: Cytotoxicity against human TK-10 cells assessed as cell growth inhibition at 10 uM incubated for 48 hrs by SRB assay; assay type: functional, cell-based
[7] = system: MDA-MB-468; assay: Cytotoxicity against human MDA-MB-468 cells assessed as cell growth inhibition at 10 uM incubated for 48 hrs by SRB assay; assay type: functional, cell-based
[8] = system: ACHN; assay: Cytotoxicity against human ACHN cells assessed as cell growth inhibition at 10 uM incubated for 48 hrs by SRB assay; assay type: functional, cell-based
[9] = system: SK-OV-3; assay: Cytotoxicity against human SK-OV-3 cells assessed as cell growth inhibition at 10 uM incubated for 48 hrs by SRB assay; assay type: functional, cell-based
[10] = system: SK-MEL-5; assay: Cytotoxicity against human SK-MEL-5 cells assessed as cell growth inhibition at 10 uM incubated for 48 hrs by SRB assay; assay type: functional, cell-based
[11] = system: RPMI-8226; assay: Cytotoxicity against human RPMI-8226 cells assessed as cell growth inhibition at 10 uM incubated for 48 hrs by SRB assay; assay type: functional, cell-based
[12] = system: OVCAR-3; assay: Cytotoxicity against human OVCAR-3 cells assessed as cell growth inhibition at 10 uM incubated for 48 hrs by SRB assay; assay type: functional, cell-based
[13] = system: SK-MEL-2; assay: Cytotoxicity against human SK-MEL-2 cells assessed as cell growth inhibition at 10 uM incubated for 48 hrs by SRB assay; assay type: functional, cell-based
[14] = system: SNB-19; assay: Cytotoxicity against human SNB-19 cells assessed as cell growth inhibition at 10 uM incubated for 48 hrs by SRB assay; assay type: functional, cell-based
[15] = system: UACC-62; assay: Cytotoxicity against human UACC-62 cells assessed as cell growth inhibition at 10 uM incubated for 48 hrs by SRB assay; assay type: functional, cell-based
[16] = system: HCT-116; assay: Cytotoxicity against human HCT-116 cells assessed as cell growth inhibition at 10 uM incubated for 48 hrs by SRB assay; assay type: functional, cell-based
[17] = system: HCC 2998; assay: Cytotoxicity against human HCC 2998 cells assessed as cell growth inhibition at 10 uM incubated for 48 hrs by SRB assay; assay type: functional, cell-based
[18] = system: NCI-H322M; assay: Cytotoxicity against human NCI-H322M cells assessed as cell growth inhibition at 10 uM incubated for 48 hrs by SRB assay; assay type: functional, cell-based
[19] = system: NCI-H226; assay: Cytotoxicity against human NCI-H226 cells assessed as cell growth inhibition at 10 uM incubated for 48 hrs by SRB assay; assay type: functional, cell-based
[20] = system: K562; assay: Cytotoxicity against human K562 cells assessed as cell growth inhibition at 10 uM incubated for 48 hrs by SRB assay; assay type: functional, cell-based
[21] = system: NCI/ADR-RES; assay: Cytotoxicity against human NCI/ADR-RES cells assessed as cell growth inhibition at 10 uM incubated for 48 hrs by SRB assay; assay type: functional, cell-based
[22] = system: BT-549; assay: Cytotoxicity against human BT-549 cells assessed as cell growth inhibition at 10 uM incubated for 48 hrs by SRB assay; assay type: functional, cell-based
[23] = system: SR; assay: Cytotoxicity against human SR cells assessed as cell growth inhibition at 10 uM incubated for 48 hrs by SRB assay; assay type: functional, cell-based
[24] = system: SNB-75; assay: Cytotoxicity against human SNB-75 cells assessed as cell growth inhibition at 10 uM incubated for 48 hrs by SRB assay; assay type: functional, cell-based
[25] = system: EKVX; assay: Cytotoxicity against human EKVX cells assessed as cell growth inhibition at 10 uM incubated for 48 hrs by SRB assay; assay type: functional, cell-based
[26] = system: CAKI-1; assay: Cytotoxicity against human CAK1 cells assessed as cell growth inhibition at 10 uM incubated for 48 hrs by SRB assay; assay type: functional, cell-based
[27] = system: MDA-MB-231; assay: Cytotoxicity against human MDA-MB-231 cells assessed as cell growth inhibition at 10 uM incubated for 48 hrs by SRB assay; assay type: functional, cell-based
[28] = system: UACC-257; assay: Cytotoxicity against human UACC-257 cells assessed as cell growth inhibition at 10 uM incubated for 48 hrs by SRB assay; assay type: functional, cell-based
[29] = system: HOP-62; assay: Cytotoxicity against human HOP-62 cells assessed as cell growth inhibition at 10 uM incubated for 48 hrs by SRB assay; assay type: functional, cell-based
[30] = system: Malme-3M; assay: Cytotoxicity against human Malme-3M cells assessed as cell growth inhibition at 10 uM incubated for 48 hrs by SRB assay; assay type: functional, cell-based
[31] = system: KM12; assay: Cytotoxicity against human KM12 cells assessed as cell growth inhibition at 10 uM incubated for 48 hrs by SRB assay; assay type: functional, cell-based
[32] = system: Hs-578T; assay: Cytotoxicity against human Hs-578T cells assessed as cell growth inhibition at 10 uM incubated for 48 hrs by SRB assay; assay type: functional, cell-based
[33] = system: MOLT-4; assay: Cytotoxicity against human MOLT-4 cells assessed as cell growth inhibition at 10 uM incubated for 48 hrs by SRB assay; assay type: functional, cell-based
[34] = system: COLO 205; assay: Cytotoxicity against human COLO 205 cells assessed as cell growth inhibition at 10 uM incubated for 48 hrs by SRB assay; assay type: functional, cell-based
[35] = system: HOP-92; assay: Cytotoxicity against human HOP-92 cells assessed as cell growth inhibition at 10 uM incubated for 48 hrs by SRB assay; assay type: functional, cell-based
[36] = biological target: Homeodomain-interacting protein kinase 1 (Homo sapiens) (UniProt Q86Z02); assay: Inhibition of wild-type human partial length HIPK1 (M146 to I555 residues) expressed in mammalian expression system at 1 uM by Kinomescan method
Homeodomain-interacting protein kinase 1 (Homo sapiens), sequence (Q86Z02 whole entry, looked up, the tested form may be a part): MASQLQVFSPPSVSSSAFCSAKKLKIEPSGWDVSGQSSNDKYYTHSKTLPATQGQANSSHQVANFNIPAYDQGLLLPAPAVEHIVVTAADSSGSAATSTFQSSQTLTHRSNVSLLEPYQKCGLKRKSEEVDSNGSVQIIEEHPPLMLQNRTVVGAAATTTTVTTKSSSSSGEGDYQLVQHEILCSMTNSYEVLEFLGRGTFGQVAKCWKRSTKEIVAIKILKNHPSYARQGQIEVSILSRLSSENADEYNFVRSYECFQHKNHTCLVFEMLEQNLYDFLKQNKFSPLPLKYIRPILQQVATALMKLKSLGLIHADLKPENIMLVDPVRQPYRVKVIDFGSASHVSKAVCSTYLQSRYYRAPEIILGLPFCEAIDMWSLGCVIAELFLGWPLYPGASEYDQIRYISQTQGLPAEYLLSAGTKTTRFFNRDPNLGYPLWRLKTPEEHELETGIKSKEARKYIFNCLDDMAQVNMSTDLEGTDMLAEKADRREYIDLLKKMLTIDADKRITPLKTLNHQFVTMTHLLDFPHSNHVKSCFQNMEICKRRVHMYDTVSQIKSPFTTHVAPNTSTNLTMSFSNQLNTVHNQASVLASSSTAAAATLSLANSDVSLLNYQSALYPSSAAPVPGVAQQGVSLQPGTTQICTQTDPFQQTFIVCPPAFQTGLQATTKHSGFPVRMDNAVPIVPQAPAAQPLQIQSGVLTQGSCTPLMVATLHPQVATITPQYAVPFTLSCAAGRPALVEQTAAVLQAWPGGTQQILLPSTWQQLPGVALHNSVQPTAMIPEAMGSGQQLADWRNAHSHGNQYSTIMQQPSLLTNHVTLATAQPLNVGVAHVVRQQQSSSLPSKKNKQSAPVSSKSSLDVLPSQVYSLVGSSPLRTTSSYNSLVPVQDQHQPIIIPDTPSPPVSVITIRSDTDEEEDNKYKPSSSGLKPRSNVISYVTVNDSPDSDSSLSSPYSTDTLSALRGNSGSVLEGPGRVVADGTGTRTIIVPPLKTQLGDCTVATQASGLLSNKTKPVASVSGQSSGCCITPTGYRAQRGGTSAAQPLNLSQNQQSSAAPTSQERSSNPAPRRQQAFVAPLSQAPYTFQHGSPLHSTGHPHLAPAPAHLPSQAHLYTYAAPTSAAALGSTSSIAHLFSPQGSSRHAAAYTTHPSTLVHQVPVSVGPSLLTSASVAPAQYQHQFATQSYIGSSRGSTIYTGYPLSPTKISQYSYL

[37] = system: T47D; assay: Cytotoxicity against human T47D cells assessed as cell growth inhibition at 10 uM incubated for 48 hrs by SRB assay; assay type: functional, cell-based
[38] = system: M14; assay: Cytotoxicity against human M14 cells assessed as cell growth inhibition at 10 uM incubated for 48 hrs by SRB assay; assay type: functional, cell-based
[39] = system: UO-31; assay: Cytotoxicity against human UO-31 cells assessed as cell growth inhibition at 10 uM incubated for 48 hrs by SRB assay; assay type: functional, cell-based
[40] = system: CCRF-CEM; assay: Cytotoxicity against human CCRF-CEM cells assessed as cell growth inhibition at 10 uM incubated for 48 hrs by SRB assay; assay type: functional, cell-based
[41] = system: OVCAR-4; assay: Cytotoxicity against human OVCAR-4 cells assessed as cell growth inhibition at 10 uM incubated for 48 hrs by SRB assay; assay type: functional, cell-based
[42] = system: OVCAR-5; assay: Cytotoxicity against human OVCAR-5 cells assessed as cell growth inhibition at 10 uM incubated for 48 hrs by SRB assay; assay type: functional, cell-based
[43] = system: A549; assay: Cytotoxicity against human A549 cells assessed as cell growth inhibition at 10 uM incubated for 48 hrs by SRB assay; assay type: functional, cell-based
[44] = system: OVCAR-8; assay: Cytotoxicity against human OVCAR-8 cells assessed as cell growth inhibition at 10 uM incubated for 48 hrs by SRB assay; assay type: functional, cell-based
[45] = system: MDA-MB-435; assay: Cytotoxicity against human MDA-MB-435 cells assessed as cell growth inhibition at 10 uM incubated for 48 hrs by SRB assay; assay type: functional, cell-based
[46] = system: IGROV-1; assay: Cytotoxicity against human IGROV-1 cells assessed as cell growth inhibition at 10 uM incubated for 48 hrs by SRB assay; assay type: functional, cell-based
[47] = system: SF-295; assay: Cytotoxicity against human SF-295 cells assessed as cell growth inhibition at 10 uM incubated for 48 hrs by SRB assay; assay type: functional, cell-based
[48] = system: SK-MEL-28; assay: Cytotoxicity against human SK-MEL-28 cells assessed as cell growth inhibition at 10 uM incubated for 48 hrs by SRB assay; assay type: functional, cell-based
[49] = system: NCI-H23; assay: Cytotoxicity against human NCI-H23 cells assessed as cell growth inhibition at 10 uM incubated for 48 hrs by SRB assay; assay type: functional, cell-based
[50] = system: HT-29; assay: Cytotoxicity against human HT-29 cells assessed as cell growth inhibition at 10 uM incubated for 48 hrs by SRB assay; assay type: functional, cell-based
[51] = system: SF-268; assay: Cytotoxicity against human SF-268 cells assessed as cell growth inhibition at 10 uM incubated for 48 hrs by SRB assay; assay type: functional, cell-based
[52] = system: MCF7; assay: Cytotoxicity against human MCF7 cells assessed as cell growth inhibition at 10 uM incubated for 48 hrs by SRB assay; assay type: functional, cell-based
[53] = system: NCI-H522; assay: Cytotoxicity against human NCI-H522 cells assessed as cell growth inhibition at 10 uM incubated for 48 hrs by SRB assay; assay type: functional, cell-based
[54] = system: NCI-H460; assay: Cytotoxicity against human NCI-H460 cells assessed as cell growth inhibition at 10 uM incubated for 48 hrs by SRB assay; assay type: functional, cell-based
[55] = system: SF-539; assay: Cytotoxicity against human SF-539 cells assessed as cell growth inhibition at 10 uM incubated for 48 hrs by SRB assay; assay type: functional, cell-based
[56] = system: HL-60(TB); assay: Cytotoxicity against human HL-60(TB) cells assessed as cell growth inhibition at 10 uM incubated for 48 hrs by SRB assay; assay type: functional, cell-based
[57] = system: PC-3; assay: Cytotoxicity against human PC-3 cells assessed as cell growth inhibition at 10 uM incubated for 48 hrs by SRB assay; assay type: functional, cell-based
[58] = system: LOX IMVI; assay: Cytotoxicity against human LOX IMVI cells assessed as cell growth inhibition at 10 uM incubated for 48 hrs by SRB assay; assay type: functional, cell-based
[59] = system: HCT-15; assay: Cytotoxicity against human HCT-15 cells assessed as cell growth inhibition at 10 uM incubated for 48 hrs by SRB assay; assay type: functional, cell-based
[60] = system: U-251; assay: Cytotoxicity against human U251 cells assessed as cell growth inhibition at 10 uM incubated for 48 hrs by SRB assay; assay type: functional, cell-based
[61] = system: SN12C; assay: Cytotoxicity against human SN12C cells assessed as cell growth inhibition at 10 uM incubated for 48 hrs by SRB assay; assay type: functional, cell-based
[62] = system: A498; assay: Cytotoxicity against human A498 cells assessed as cell growth inhibition at 10 uM incubated for 48 hrs by SRB assay; assay type: functional, cell-based

CC(C)(C)OC(=O)N(CCOCCO)c1ccn2ncc(-c3ccc(C(=O)O)c(O)c3)c2n1
inactive: Activity [1] | Activity [2] | Activity [3] | Activity [4] | inhibition [5] | Activity [6] | Activity [7] | Activity [8] | Activity [9] | Activity [10] | Activity [11] | Activity [12] | Activity [13] | Activity [14] | Activity [15] | Activity [16] | Activity [17] | Activity [18] | Activity [19] | Activity [20] | Activity [21] | Activity [22] | Activity [23] | Activity [24] | Activity [25] | Activity [26] | Activity [27] | Activity [28] | Activity [29] | Activity [30] | Activity [31] | Activity [32] | Activity [33] | Activity [34] | Activity [35] | inhibition [36] | Activity [37] | Activity [38] | Activity [39] | Activity [40] | Activity [41] | Activity [42] | Activity [43] | Activity [44] | Activity [45] | Activity [46] | Activity [47] | Activity [48] | Activity [49] | Activity [50] | Activity [51] | Activity [52] | Activity [53] | Activity [54] | Activity [55] | Activity [56] | Activity [57] | Activity [58] | Activity [59] | Activity [60] | Activity [61] | Activity [62]
